{"source": "ChEMBL document CHEMBL1157992", "about": "“Alvaradoins A-D. Anthracenone C arabinosides from alvaradoa jamaicensis” (J Nat Prod, 1999)", "note": "Calls of active or inactive are those of the source. The calls are words filed in the database; no cut-off is given here."}
{"test_system": "Mycobacterium tuberculosis", "assay": "Antituberculosis activity against Mycobacterium tuberculosis at 12.5 ug/mL", "format": "functional, organism-based"}
{"smiles": "COc1cc(O)c2c(c1)[C@H]([C@H]1OC[C@H](OC(C)=O)[C@H](OC(=O)C=C(C)C)[C@H]1O)c1cc(C)cc(O)c1C2=O", "Activity": "inactive"}
{"smiles": "COc1cc(O)c2c(c1)[C@@H]([C@H]1OC[C@H](OC(C)=O)[C@H](OC(=O)C=C(C)C)[C@H]1O)c1cc(C)cc(O)c1C2=O", "Activity": "inactive"}
{"smiles": "Cc1cc(O)c2c(c1)C(=O)c1cccc(O)c1C2=O", "Activity": "inactive"}
{"smiles": "COc1cc(O)c2c(c1)[C@](O)([C@H]1OC[C@H](OC(C)=O)[C@H](OC(=O)C=C(C)C)[C@H]1O)c1cc(C)cc(O)c1C2=O", "Activity": "inactive"}
{"smiles": "COc1cc(O)c2c(c1)[C@@](O)([C@H]1OC[C@H](OC(C)=O)[C@H](OC(=O)C=C(C)C)[C@H]1O)c1cc(C)cc(O)c1C2=O", "Activity": "inactive"}
{"smiles": "COc1cc(O)c2c(c1)C(=O)c1cc(C)cc(O)c1C2=O", "Activity": "inactive"}
